Assay results reported in patent US12134620B2 (ARAXES PHARMA LLC, priority 2018, dated 2024).

Molecular target: T1, KRAS G12C 1-169, his-tagged protein, GDP-loaded (Homo sapiens, UniProt P01116, G12C)
T1 construct: KRAS G12C 1-169, his-tagged protein, GDP-loaded; His tag
Assay: Biochemical assay: covalent modification of KRAS G12C, analysed by mass spectrometry (RapidFire/TOF or Q-Exactive); further: time not given here
Format: binding
Details: Modification activity, modification percentage from MS peak intensities
Summary of the method: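 GDP-loaded His-tagged KRAS G12C 1-169 (2 μM or 0.5 μM in 20 mM Hepes, 150 mM NaCl, 1 mM MgCl2) reacted with compound at 32 μM or 8 μM final (2% DMSO) for a set time, then quenched with formic acid. Percent covalent modification from deconvoluted intact-protein MS peak intensities (RapidFire/TOF or LC-Q Exactive).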

SMILES | Binding %
C=CC(=O)N1CC2(CCN(c3ncnc(-c4c(C)ccc5[nH]cnc45)c3C#N)C2)C1 [Compound I-250, 4-(2-acryloyl-2,6-diazaspiro[3.4]octan-6-yl)-6-(5-methyl-1H-benzo[d]imidazol-4-yl)pyrimidine-5-carbonitrile] | + (+ indicates binding activity greater than 0% and up to 50%)
C=CC(=O)N1CC2(CCN(c3nc(N4CCOCC4)nc(-c4c(C)ccc5c4cnn5C)c3C#N)C2)C1 [Compound I-79, 4-(2-acryloyl-2,6-diazaspiro[3.4]octan-6-yl)-6-(1,5-dimethyl-1H-indazol-4-yl)-2-morpholinopyrimidine-5-carbonitrile] | + (+ indicates binding activity greater than 0% and up to 50%)
C=CC(=O)N1CC2(CC(=O)N(c3nc(N4CCOCC4)nc(-c4c(C)ccc5[nH]ncc45)c3C#N)C2)C1 [Compound I-130, 4-(2-acryloyl-7-oxo-2,6-diazaspiro[3.4]octan-6-yl)-6-(5-methyl-1H-indazol-4-yl)-2-morpholinopyrimidine-5-carbonitrile] | ++ (++ indicates binding activity from 50 to 85%)
C=CC(=O)N1CC2(CCN(c3nc(OCc4cccnc4)nc(-c4c(C)ccc5[nH]ncc45)c3C#N)C2)C1 [Compound I-150, 4-(2-acryloyl-2,6-diazaspiro[3.4]octan-6-yl)-6-(5-methyl-1H-indazol-4-yl)-2-(pyridin-3-ylmethoxy)pyrimidine-5-carbonitrile] | ++ (++ indicates binding activity from 50 to 85%)
CC#CC(=O)N1CC2(CCN(c3cncc(-c4c(C)ccc5cnn(C)c45)c3C#N)C2)C1 [Compound I-271, 3-(2-(but-2-ynoyl)-2,6-diazaspiro[3.4]octan-6-yl)-5-(1,6-dimethyl-1H-indazol-7-yl)isonicotinonitrile] | + (+ indicates binding activity greater than 0% and up to 50%)
Cc1ccc2[nH]ncc2c1-c1nc(N2CCOCC2)nc(N2CCC3(CN(C(=O)/C=C/CN(C)C)C3)C2)c1C#N [Compound I-85, (E)-4-(2-(4-(dimethylamino)but-2-enoyl)-2,6-diazaspiro[3.4]octan-6-yl)-6-(5-methyl-1H-indazol-4-yl)-2-morpholinopyrimidine-5-carbonitrile] | + (+ indicates binding activity greater than 0% and up to 50%)
C=CC(=O)N1CC2(CCN(c3nc(N4CCOCC4)nc(-c4c(F)ccc5cnn(C)c45)c3C#N)C2)C1 [Compound I-119, 4-(2-acryloyl-2,6-diazaspiro[3.4]octan-6-yl)-6-(6-fluoro-1-methyl-1H-indazol-7-yl)-2-morpholinopyrimidine-5-carbontrile] | ++ (++ indicates binding activity from 50 to 85%)
C=CC(=O)N1CC2(CCN(c3nc(C(=O)N4CCOCC4)nc(-c4c(C)ccc5[nH]ncc45)c3C#N)C2)C1 [Compound I-201, 4-(2-acryloyl-2,6-diazaspiro[3.4]octan-6-yl)-6-(5-methyl-1H-indazol-4-yl)-2-(morpholine-4-carbonyl)pyrimidine-5-carbonitrile] | + (+ indicates binding activity greater than 0% and up to 50%)
C=CC(=O)N1CC2(CCN(c3cnc(Oc4ccccc4)c(-c4c(C)ccc5[nH]ncc45)c3C#N)C2)C1 [Compound I-214, 5-(2-acryloyl-2,6-diazaspiro[3.4]octan-6-yl)-3-(5-methyl-1H-indazol-4-yl)-2-phenoxyisonicotinoni-trile] | ++ (++ indicates binding activity from 50 to 85%)
C=CC(=O)N1CC2(CCN(c3nc(OC[C@@H]4CCCN4C)nc(NCc4cccnc4)c3C#N)C2)C1 [Compound I-18, (S)-4-(2-acryloyl-2,6-diazaspiro[3.4]octan-6-yl)-2-((1-methylpyrrolidin-2-yl)methoxy)-6-((pyridin-3-ylmethyl)amino)pyri-midine-5-carbonitrile] | + (+ indicates binding activity greater than 0% and up to 50%)
C=CC(=O)N1CC2(CCN(c3nc(OC[C@@H]4CCCN4C)nc(-n4ccnc4)c3C#N)C2)C1 [Compound I-31, (S)-4-(2-acryloyl-2,6-diazaspiro[3.4]octan-6-yl)-6-(1H-imidazol-1-yl)-2-((1-methylpyrrolidin-2-yl)methoxy)pyrimidine-5-carbonitrile] | + (+ indicates binding activity greater than 0% and up to 50%)
C=CC(=O)N1CC2(CCN(c3nc(OCc4cnc(OC)nc4)nc(-c4c(C)ccc5[nH]ncc45)c3C#N)C2)C1 [Compound I-149, 4-(2-acryloyl-2,6-diazaspiro[3.4]octan-6-yl)-2-((2-methoxypyrimidin-5-yl)methoxy)-6-(5-methyl-1H-indazol-4-yl)pyrimidine-5-carbonitrile] | +++ (+++ indicates binding activity greater than 85%)
C=CC(=O)N1CC2(CCN(c3nc(OCc4ccccc4)nc(-c4c(C)ccc5cnn(C)c45)c3C#N)C2)C1 [Compound I-163, 4-(2-acryloyl-2,6-diazaspiro[3.4]octan-6-yl)-2-(benzyloxy)-6-(1,6-dimethyl-1H-indazol-7-yl)pyrimidine-5-carbonitrile] | ++ (++ indicates binding activity from 50 to 85%)
C=CC(=O)N1CC2(CCN(c3nc(OCc4cc(C(F)(F)F)ccn4)nc(-c4c(C)ccc5[nH]ncc45)c3C#N)C2)C1 [Compound I-174, 4-(2-acryloyl-2,6-diazaspiro[3.4]octan-6-yl)-6-(5-methyl-1H-indazol-4-yl)-2-((4-(trifluoromethyl)pyri-din-2-yl)methoxy)pyrimidine-5-carbonitrile] | ++ (++ indicates binding activity from 50 to 85%)
C=CC(=O)N1CC2(CCN(c3ncnc(-c4c(C)ccc5[nH]ncc45)c3C(F)(F)F)C2)C1 [Compound I-260, 1-(6-(6-(5-methyl-1H-indazol-4-yl)-5-(trifluoromethyl)pyri-midin-4-yl)-2,6-diazaspiro[3.4]octan-2-yl)prop-2-en-1-one] | + (+ indicates binding activity greater than 0% and up to 50%)
C=CC(=O)N1CC2(CCN(c3nc(OC[C@@H]4CCCN4C)nc(-c4c(F)ccc5cnn(C6CC6)c45)c3C#N)C2)C1 [Compound I-124, 4-(2-acryloyl-2,6-diazaspiro[3.4]octan-6-yl)-6-(1-cyclopropyl-6-fluoro-1H-indazol-7-yl)-2-(((S)-1-methylpyrrolidin-2-yl)methoxy)pyrimidine-5-carbonitrile] | + (+ indicates binding activity greater than 0% and up to 50%)
C=CC(=O)N1CC2(CCN(c3nc(OC4CCOCC4)nc(-c4c(C)ccc5[nH]ncc45)c3C#N)C2)C1 [Compound I-25, 4-(2-acryloyl-2,6-diazaspiro[3.4]octan-6-yl)-6-(5-methyl-1H-indazol-4-yl)-2-((tetrahydro-2H-pyran-4-yl)oxy)pyrimidine-5-carbonitrile] | + (+ indicates binding activity greater than 0% and up to 50%)
C=CC(=O)N1CC2(CCN(c3nc(OCc4cccc(OC)c4)nc(-c4c(C)ccc5cnn(C)c45)c3C#N)C2)C1 [Compound I-159, 4-(2-acryloyl-2,6-diazaspiro[3.4]octan-6-yl)-6-(1,6-dimethyl-1H-indazol-7-yl)-2-((3-methoxybenzyl)oxy) pyrimidine-5-carbonitrile] | ++ (++ indicates binding activity from 50 to 85%)
C=CC(=O)N1CC2(CCN(c3nc(N4CCCC4)nc(-c4c(C)ccc5[nH]ncc45)c3C#N)C2)C1 [Compound I-1, 4-(2-acryloyl-2,6-diazaspiro[3.4]octan-6-yl)-6-(5-methyl-1H-indazol-4-yl)-2-(pyrrolidin-1-yl)pyrimidine-5-carbonitrile] | +++ (+++ indicates binding activity greater than 85%)
